Consider one substance from patent US20110135761A1, “ANTIMICROBIAL SUTURE FOR MEDICAL USE WITH GRAPEFRUIT EXTRACT, AND MANUFACTURING METHOD THEREOF” (Korea Institute of Ceramic Engineering and Technology, priority 2009, published 2011).

This series is classed as physicochemical. From the text:
The short degradation period refers that the biodegradation effect is high; it has advantage that the secondary infection due to the suture is decreased.

Turning to “poly(glycolide-co-L-lactide) [PGLA suture]”, the “degradation behavior (in words)” value is given as “degradation of the suture was quickly progressed”.
